Patent publication US7498300B2, “CRFR1 selective ligands” (The Salk Institute for Biological Studies, priority 2001, dated 2009)

Assays:
human CRFR2 = target: T1, human CRFR2 (Homo sapiens, UniProt Q13324); test: Competitive binding assay, CHO cells stably expressing human CRFR2, displacement of [125I-Tyr0]Ucn
T1 construct: expressed in transfected cells
T1 sequence (Q13324 1-411): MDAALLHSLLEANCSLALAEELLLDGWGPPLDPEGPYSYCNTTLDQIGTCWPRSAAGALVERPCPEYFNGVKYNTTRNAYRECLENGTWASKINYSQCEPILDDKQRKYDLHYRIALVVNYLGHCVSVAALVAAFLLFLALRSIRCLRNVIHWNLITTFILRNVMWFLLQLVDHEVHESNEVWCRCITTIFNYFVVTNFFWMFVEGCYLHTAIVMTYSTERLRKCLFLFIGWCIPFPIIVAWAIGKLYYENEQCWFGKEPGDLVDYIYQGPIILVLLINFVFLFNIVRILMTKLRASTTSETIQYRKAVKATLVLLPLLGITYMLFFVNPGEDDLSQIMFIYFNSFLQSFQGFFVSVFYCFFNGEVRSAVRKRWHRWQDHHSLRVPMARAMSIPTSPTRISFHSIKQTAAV
Method: The affinities of test peptides for CRFR1 and CRFR2 stably expressed in CHO cells were determined by competitive displacement of ^125I-(Nle^21, Tyr^32) ovine CRF (for CRFR1) or of [^125I-Tyr^o-]Ucn (for CRFR2) as described.

human CRFR1 = target: T2, human CRFR1 (Homo sapiens, UniProt P34998); test: Competitive binding assay, CHO cells stably expressing human CRFR1, displacement of 125I-(Nle21,Tyr32) ovine CRF
T2 construct: expressed in transfected cells
T2 sequence (P34998 24-415): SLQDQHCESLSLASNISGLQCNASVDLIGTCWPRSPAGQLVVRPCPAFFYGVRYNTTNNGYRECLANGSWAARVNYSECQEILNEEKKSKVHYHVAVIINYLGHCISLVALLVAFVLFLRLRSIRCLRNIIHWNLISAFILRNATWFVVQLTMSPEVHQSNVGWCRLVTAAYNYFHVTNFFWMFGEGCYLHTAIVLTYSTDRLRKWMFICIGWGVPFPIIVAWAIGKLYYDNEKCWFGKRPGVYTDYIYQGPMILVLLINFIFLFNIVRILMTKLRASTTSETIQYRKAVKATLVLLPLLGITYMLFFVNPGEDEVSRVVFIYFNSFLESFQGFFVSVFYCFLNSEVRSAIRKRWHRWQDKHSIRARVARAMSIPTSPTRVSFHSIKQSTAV
Method: Binding affinity is a term used to refer to the strength of interaction between ligand and receptor. […] Ki (inhibitory binding affinity constant) is determined using a “standard” or “tracer” radioactive ligand and thus measures the displacement of the tracer from the receptor or binding protein; it is most properly expressed with reference to such tracer. However, so long as these assays are carefully performed under specific conditions with relatively low concentrations of receptor or the like, the calculated Ki will be substantially the same as its dissociation constant KD. […] It is particularly efficient to test for Ki because only a single tracer need be labelled, e.g. radioiodinated.
Binding assays with cells expressing human CRFR1 are carried out as described in the Chen et al. P.N.A.S., supra. The affinities of test peptides for CRFR1 and CRFR2 stably expressed in CHO cells were determined by competitive displacement of ^125I-(Nle^21, Tyr^32) ovine CRF (for CRFR1) or of [^125I-Tyr^o-]Ucn (for CRFR2) as described.

[1] = In vivo lowering of blood pressure on peripheral administration; details: administered peripherally
Method: (§1) In vivo testing is carried out using the general procedure set forth in C.

[2] = system: cultured rat pituitary cells; test: In vitro stimulation of ACTH and β-endorphin secretion by cultured rat pituitary cells; type: cell-based
Method: as §1

binding to CRFR2 (in words) (human CRFR2)	binding to CRFR1 (in words) (human CRFR1)	Substance	lowering of blood pressure [1]	stimulation of the secretion of ACTH and β-END-LI [2]
only very weakly	binds strongly	(cyclo 31-34)[Ac-Pro^4, D-Phe^12, Nle^14,18,24, Glu^31, Lys^34]-flounder urotensin(4-41) [Example 3 G]	very significant lowering of blood pressure	stimulates
only very weakly	binds strongly	(cyclo 31-34)[Ac-Pro^4, D-Phe^12, Nle^14,18,24, Glu^31, Lys^34]-maggy urotensin(4-41) [Example 3 E]	very significant lowering of blood pressure	stimulates
only very weakly	binds strongly	(cyclo 31-34)[Ac-Pro^4, D-Phe^12, Nle^21,38, CML^27,37, Glu^31, Lys^34]-r/hCRF(4-41) [Example 6 D]	very significant lowering of blood pressure	stimulates
only very weakly	binds strongly	(cyclo 31-34)[Ac-Pro^4, D-Phe^12, Nle^21,38, CML^27, Glu^31, Lys^34]-r/hCRF(4-41) [Example 5 C]	very significant lowering of blood pressure	stimulates
only very weaker	bind strongly	(cyclo 31-34)[Ac-Pro^4, D-Phe^12, Nle^21,38, Glu^31, Aib^33, Lys^34]-r/hCRF(4-41) [Example 4]	very significant lowering of blood pressure	strongly stimulates
only very weakly	binds strongly	(cyclo 31-34)[Ac-Pro^4, D-Phe^12, CML^18,27, Nle^21,38, Glu^31, Lys^34]-r/hCRF(4-41) [Example 6 B]	very significant lowering of blood pressure	stimulates
only very weakly	binds strongly	(cyclo 31-34)[Ac-Pro^4, D-Phe^12, Nle^21,38, CML^27,36, Glu^31, Lys^34]-r/hCRF(4-41) [Example 6 C]	very significant lowering of blood pressure	stimulates
bind only weakly	high affinity	(cyclo 31-34)[Ac-Pro^4, D-Phe^12, Nle^21,38, CML^27,40, Glu^31, Lys^34]-r/hCRF(4-41) [Example 6 E]	very significant lowering of blood pressure	stimulates
only very weakly	binds strongly	(cyclo 31-34)[Ac-Pro^4, D-Phe^12, CML^14,27, Nle^21,38, Glu^31, Lys^34]-r/hCRF(4-41) [Example 6 A]	very significant lowering of blood pressure	stimulates
only very weakly	binds strongly	(cyclo 31-34)[Ac-Pro^4, D-Phe^12, CML^15, Nle^21,38, Glu^31, Lys^34]-r/hCRF(4-41) [Example 5]	very significant lowering of blood pressure	stimulates
poorly	bind strongly	(cyclo 31-34)[Ac-Pro^4, D-Phe^12, Nle^21,38, Glu^31, Lys^34]-oCRF(4-41) [Example 2]	very significant lowering of blood pressure	strongly stimulates
only very weakly	binds strongly	(cyclo 31-34)[Ac-Pro^4, D-Phe^12, CML^17, Nle^21,38, Glu^31, Lys^34]-r/hCRF(4-41) [Example 5 E]	very significant lowering of blood pressure	stimulates
bind only weakly	high affinity	(cyclo 31-34)[Ac-Pro^4, D-Phe^12, Nle^21,38, CML^27,40, Glu^31, D-Ala^33, Lys^34]-r/hCRF(4-41) [Example 6 I]	very significant lowering of blood pressure	stimulates
only very weakly	binds strongly	(cyclo 31-34)[Ac-Pro^4, D-Phe^12, Nle^18,21, Glu^31, Lys^34]-sucker urotensin(4-41) [Example 3 B]	very significant lowering of blood pressure	stimulates
only very weakly	binds strongly	(cyclo 31-34)[Ac-Pro^4, CML^19, Nle^21,38, Glu^31, Lys^34]-r/hCRF(4-41) [Example 5 B]	very significant lowering of blood pressure	stimulates
only very weakly	bind strongly	(cyclo 31-34)[Ac-Pro^4, D-Phe^12, Nle^18,21, Glu^31, Lys^34]-AHC(4-41) [Example 3 A]	very significant lowering of blood pressure	strongly stimulates
only very weakly	binds strongly	(cyclo 31-34)[Ac-Pro^4, D-Phe^12, Nle^21,38, CML^27,36, Glu^31, D-His^32, Lys^34]-r/hCRF(4-41) [Example 6 C D-His^32 analog]	very significant lowering of blood pressure	stimulates
only very weakly	binds strongly	(cyclo 31-34)[Ac-Pro^4, D-Phe^12, CML^14, Nle^21,38, Glu^31, Lys^34]-r/hCRF(4-41) [Example 5 A]	very significant lowering of blood pressure	stimulates
bind only weakly	high affinity	(cyclo 31-34)[Ac-Pro^4, D-Phe^12, Nle^21,38, CML^27,40, Glu^31, Aib^33, Lys^34]-r/hCRF(4-41) [Example 6 G]	very significant lowering of blood pressure	stimulates
only very weakly	binds strongly	(cyclo 31-34)[Ac-Pro^4, D-Phe^12, Nle^21,38, Glu^31, Lys^34]-porcine CRF(4-41) [Example 3 C]	very significant lowering of blood pressure	stimulates
only very weakly	binds strongly	(cyclo 31-34)[Ac-Pro^4, D-Phe^12, Nle^21,38, CML^27,41, Glu^31, Lys^34]-r/hCRF(4-41) [Example 6 F]	very significant lowering of blood pressure	stimulates
only very weakly	binds strongly	(cyclo 31-34)[Ac-Pro^4, D-Phe^12, Nle^21,38, Glu^31, Lys^34, CML^37]-r/hCRF(4-41) [Example 5 D]	very significant lowering of blood pressure	stimulates
bind only weakly		(cyclo 31-34)[Ac-Pro^4, D-Phe^12, Nle^21,38, CML^27,40, Glu^31, D-Ser^33, Lys^34]-r/hCRF(4-41) [Example 6 H]	very significant lowering of blood pressure	stimulates
only very weakly	binds strongly	(cyclo 31-34)[Ac-Pro^4, D-Phe^12, Nle^21,37,38, Glu^31, Lys^34]-fish CRF(4-41) [Example 3 D]	very significant lowering of blood pressure	stimulates
